Target: T1, HoBGLA (Halothermothrix orenii, UniProt B8CYA8)
T1 construct: gene Hore_15280; full length, 451 residues, GH1; pNIC28-Bsa4 N-terminal His6-TEV tag cut off with TEV protease; expressed in E. coli BL21(DE3); 53 kDa
Assay: X-ray crystal structure, […] Å, crystal soaked with cellobionolactam
Type: binding
Conditions: pH 5.5; subsite −1, non-covalent, glucose left after cleavage of cellobionolactam

T1 sequence (B8CYA8 entry or part of it): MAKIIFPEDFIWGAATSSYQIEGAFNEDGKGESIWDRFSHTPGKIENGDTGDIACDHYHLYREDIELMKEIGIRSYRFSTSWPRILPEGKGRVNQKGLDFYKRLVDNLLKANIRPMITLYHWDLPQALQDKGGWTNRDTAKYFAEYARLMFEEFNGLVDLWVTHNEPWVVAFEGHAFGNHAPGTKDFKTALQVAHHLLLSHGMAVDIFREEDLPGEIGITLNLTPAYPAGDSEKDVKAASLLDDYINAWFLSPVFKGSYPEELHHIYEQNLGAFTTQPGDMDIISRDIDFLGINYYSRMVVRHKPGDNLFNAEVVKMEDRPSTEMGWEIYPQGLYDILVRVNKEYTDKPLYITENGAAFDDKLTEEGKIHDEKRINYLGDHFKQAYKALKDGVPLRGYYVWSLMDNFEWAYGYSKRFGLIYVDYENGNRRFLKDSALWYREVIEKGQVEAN

OC[C@H]1O[C@@H](O)[C@H](O)[C@@H](O)[C@@H]1O [D-glucose] was tested. Which “X-ray crystal structure, 1.80 Å, crystal soaked with cellobionolactam” value did it give?
Its value is “The crystal structure of HoBGLA in complex with glucose, representing the post-hydrolysis state”.

Source: publication PMC4322223, “Biochemical and structural characterization of a thermostable β-glucosidase from Halothermothrix orenii for galacto-oligosaccharide synthesis” (Applied Microbiology and Biotechnology, 2014)
